Test results reported in patent publication US8420049B2 (priority 2002, dated 2013).
One block for each molecule: values may come before it.

What was measured:
[1] = Ex vivo distribution of [^11C] AMP in mice; design: species or system mouse; conditions: CD-1 mice, mean ± SD (n = 3)
Method: Non-fasted, male CD-1 mice (25 g) were injected via the tail vein with 15.5 MBq (418 μCi, 2.57 μg/kg) of [^11C] AMP. Three mice each were sacrificed by cervical dislocation at 5, 30, and 60 minutes after injection. The lungs, heart, kidneys, liver, spleen, intestine, stomach, and brain were quickly removed and put on ice. One femur and samples of thigh muscle and blood were also collected. The organs were weighed, and the tissue radioactivity measured with an automated gamma counter (LKB Wallac 1282 Compugamma CS Universal Gamma Counter). The percent injected dose per gram of tissue (% ID/g) was calculated by comparison with samples of a standard dilution of the initial dose. All measurements were corrected for decay.

[2] = In vitro metabolism of [^11C] AMP in human whole blood or plasma; format: in vitro ADME
Method: Human plasma was prepared from heparinized blood of a healthy volunteer. 50 μL of [^11C] AMP (39.96-70.82 GBq/μmol, 1080-1914 mCi/μmol) was added to 1 mL of plasma or heparinized whole blood at 37° C. In one series of studies, dipyridamole was added to give a concentration of 500 μM in whole blood. One hundred μL samples, which were removed from the incubation mixture at 0, 2, 5, 10, 20, and 30 minutes, were added to 350 μL of water at 0° C. and acidified with 50 μL of 5N perchloric acid. After standing for 5 minutes on ice, the protein precipitate was removed by centrifugation at 13,000×g for 1 minute in a microcentrifuge. The acid soluble supernatant was analyzed by HPLC. Chromatographic separation of the labeled adenosine phosphate esters used a Phenomenex Synergi Polar RP column (4.6×250 mm, 10 micron particle size) eluted with 0.1N perchloric acid at 2 mL/min. Radioactivity was detected by a dual BGO flow detector (Bioscan Inc., Washington D.C.). Optical detection was at 254 nm. Data from both detectors was collected and analyzed by Laura software (Bioscan Inc., Washington D.C.).

[3] = Effect of dipyridamole treatment on uptake and distribution of [^11C] AMP in mice; format: in vivo, mouse; conditions: 30 mg/kg dipyridamole ip 60 minutes before [^11C] AMP
Method: The effect of dipyridamole treatment on the uptake and distribution of [^11C] AMP, nine mice were given a 30 mg/kg dose of dipyridamole ip 60 minutes prior to administration of the radiotracer was determined. Three mice each were sacrificed 5, 30, and 60 minutes after injection of 23.8 MBq (642 μCi, 8.7 μg/kg) of [^11C] AMP. All tissue samples were handled as described above.

SMILES: Nc1n[11cH]nc2c1ncn2[C@@H]1O[C@H](COP(=O)(O)O)[C@@H](O)[C@H]1O [[^11C] AMP, [^11C] Adenosine 5′-Monophosphate]
Ex vivo mouse biodistribution ([1]; Blood, 5 minutes after iv injection): 27.94 ± 8.21 % ID/g
Ex vivo mouse biodistribution ([1]; Blood, 30 minutes after iv injection): 27.34 ± 0.41 % ID/g
Ex vivo mouse biodistribution ([1]; Blood, 60 minutes after iv injection): 24.34 ± 4.13 % ID/g
Ex vivo mouse biodistribution ([1]; Bone, 5 minutes after iv injection): 2.35 ± 0.68 % ID/g
Ex vivo mouse biodistribution ([1]; Bone, 30 minutes after iv injection): 2.57 ± 0.34 % ID/g
Ex vivo mouse biodistribution ([1]; Bone, 60 minutes after iv injection): 3.21 ± 0.48 % ID/g
Ex vivo mouse biodistribution ([1]; Brain, 5 minutes after iv injection): 0.78 ± 0.18 % ID/g
Ex vivo mouse biodistribution ([1]; Brain, 30 minutes after iv injection): 1.06 ± 0.19 % ID/g
Ex vivo mouse biodistribution ([1]; Brain, 60 minutes after iv injection): 0.80 ± 0.26 % ID/g
Ex vivo mouse biodistribution ([1]; Heart, 5 minutes after iv injection): 20.09 ± 3.24 % ID/g
Ex vivo mouse biodistribution ([1]; Heart, 30 minutes after iv injection): 18.07 ± 5.19 % ID/g
Ex vivo mouse biodistribution ([1]; Heart, 60 minutes after iv injection): 20.47 ± 2.87 % ID/g
Ex vivo mouse biodistribution ([1]; Intestine, 5 minutes after iv injection): 1.74 ± 0.41 % ID/g
Ex vivo mouse biodistribution ([1]; Intestine, 30 minutes after iv injection): 1.80 ± 0.50 % ID/g
Ex vivo mouse biodistribution ([1]; Intestine, 60 minutes after iv injection): 2.17 ± 1.06 % ID/g
Ex vivo mouse biodistribution ([1]; Kidneys, 5 minutes after iv injection): 8.88 ± 3.82 % ID/g
Ex vivo mouse biodistribution ([1]; Kidneys, 30 minutes after iv injection): 9.31 ± 2.88 % ID/g
Ex vivo mouse biodistribution ([1]; Kidneys, 60 minutes after iv injection): 6.80 ± 4.10 % ID/g
Ex vivo mouse biodistribution ([1]; Liver, 5 minutes after iv injection): 7.56 ± 3.98 % ID/g
Ex vivo mouse biodistribution ([1]; Liver, 30 minutes after iv injection): 2.99 ± 0.10 % ID/g
Ex vivo mouse biodistribution ([1]; Liver, 60 minutes after iv injection): 3.53 ± 0.55 % ID/g
Ex vivo mouse biodistribution ([1]; Lungs, 5 minutes after iv injection): 32.37 ± 4.52 % ID/g
Ex vivo mouse biodistribution ([1]; Lungs, 30 minutes after iv injection): 29.52 ± 5.42 % ID/g
Ex vivo mouse biodistribution ([1]; Lungs, 60 minutes after iv injection): 38.48 ± 3.63 % ID/g
Ex vivo mouse biodistribution ([1]; Muscle, 5 minutes after iv injection): 2.14 ± 0.61 % ID/g
Ex vivo mouse biodistribution ([1]; Muscle, 30 minutes after iv injection): 3.67 ± 0.54 % ID/g
Ex vivo mouse biodistribution ([1]; Muscle, 60 minutes after iv injection): 3.63 ± 1.04 % ID/g
Ex vivo mouse biodistribution ([1]; Spleen, 5 minutes after iv injection): 2.96 ± 1.49 % ID/g
Ex vivo mouse biodistribution ([1]; Spleen, 30 minutes after iv injection): 4.75 ± 0.67 % ID/g
Ex vivo mouse biodistribution ([1]; Spleen, 60 minutes after iv injection): 4.71 ± 1.06 % ID/g
Ex vivo mouse biodistribution ([1]; Stomach, 5 minutes after iv injection): 1.98 ± 0.36 % ID/g
Ex vivo mouse biodistribution ([1]; Stomach, 30 minutes after iv injection): 1.12 ± 0.25 % ID/g
Ex vivo mouse biodistribution ([1]; Stomach, 60 minutes after iv injection): 2.10 ± 0.98 % ID/g
conversion of the tracer to adenosine ([2]; dipyridamole (500 μM) treated whole human blood, after 5 minutes): > 60%
conversion to ATP ([2]; whole human blood, 37° C., after 10 minutes): > 60%

effect on amount of tracer in the blood [3]: did not affect
effect on uptake of [^11C] radiotracer in the lungs ([3]; 60 minutes after injection): significantly decreased
SMILES: OCCN(CCO)c1nc(N2CCCCC2)c2nc(N(CCO)CCO)nc(N3CCCCC3)c2n1 [dipyridamole]
